Patent US5698710A, “Tachykinins antagonists” (A. Menarini Industrie Farmaceutiche Riunite S.r.l., priority 1994, dated 1997)

Target: T1, NK1 receptors (Homo sapiens, UniProt P25103)
T1 construct: endogenous in cells; host or cells: IM9 cells (intact)
Experiment: [^3 H]SP Binding Assay in IM9 Cell Line (competition)
Settings: for Affinity (pKi) in the IM9 binding test: intact IM9 cells, 0.3 nM [^3 H]SP, 60' at room temperature, pH 7.5; for Ki: read-out: Affinity (pKi) in the IM9 binding test (converted)
Procedure: The evaluation of the antagonist acivity of NK1 receptors was performed with binding and functional tests.
The assay was carried out on intact cells as described by Payan et al. (1984). The cells were washed with buffer A at pH 7.5 containing (in mM) Tris-HCl 50, NaCl 150 and 0.02% BSA, thereafter were resuspended in a dosage buffer (buffer A added with protease inhibitors), concentration 1×10^7 cells/ml. […] The non-specific binding was calculated in the presence of […] of non-radioactive SP. The dosage mixture was poured in test tubes for microcentrifugation which were preadsorbed in a solution of BSA 0.5% for at least 3 hours. […] The affinity was measured as pKi.

T1 sequence (P25103 whole entry): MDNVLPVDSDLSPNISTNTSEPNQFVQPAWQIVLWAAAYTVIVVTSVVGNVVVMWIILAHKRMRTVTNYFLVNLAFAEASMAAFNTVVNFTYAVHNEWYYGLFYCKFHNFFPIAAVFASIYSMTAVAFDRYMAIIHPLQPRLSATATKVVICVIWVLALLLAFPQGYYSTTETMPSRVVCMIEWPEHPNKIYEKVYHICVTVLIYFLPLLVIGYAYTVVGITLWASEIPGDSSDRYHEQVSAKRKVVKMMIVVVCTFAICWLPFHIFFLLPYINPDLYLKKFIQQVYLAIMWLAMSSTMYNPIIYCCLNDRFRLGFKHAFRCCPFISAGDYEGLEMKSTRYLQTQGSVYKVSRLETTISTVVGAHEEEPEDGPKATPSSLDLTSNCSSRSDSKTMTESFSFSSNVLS

Affinity (pKi) in the IM9 binding test	Ki [nM]	Compound
7.6	–	COCCOCOC1CCC(NC(=O)c2c[nH]c3ccccc23)(C(=O)NC(Cc2ccccc2)C(=O)N(C)Cc2ccccc2)CC1 (stereo not drawn) [xxv, N-[N(1(H)indol-3-yl-carbonyl)-1-amino-cis-4-methoxyethoxymethoxyl-cyclohexancarbonyl]-phenylalanine-N-methyl-N-benzylamide]
8.3	–	CN(Cc1ccccc1)C(=O)C(Cc1ccc2ccccc2c1)NC(=O)C1(NC(=O)c2c[nH]c3ccccc23)CCC(O)CC1 (stereo not drawn) [xviii, N-[N(1(H)indol-3-yl-carbonyl)-1-amino-cis-4-hydrohy-cyclohexancarbonyl]-2-(2-naphthyl)alanine-N-methyl-N-benzylamide]
–	44.7	CN(Cc1ccccc1)C(=O)C(Cc1ccc2ccccc2c1)NC(=O)C1(NC(=O)c2cc3ccccc3o2)CCCCC1 (centres unmarked) [N-[N(benzofuran-2-yl-carbonyl)-1-aminocyclohexancarbonyl]-2-(2-naphthyl)alanine-N-methyl-N-benzylamide]
–	5.01	CN(Cc1ccccc1)C(=O)C(Cc1ccc2ccccc2c1)NC(=O)C1(NC(=O)c2c[nH]c3ccccc23)CCSCC1 (centres unmarked) [N-[N(1(H)indol-3-yl-carbonyl)-4-amino-tetrahydrothiopyran-4-carbonyl]-2-(2-naphthyl)alanine-N-methyl-N-benzylamide]
–	12.6	CN(Cc1ccccc1)C(=O)C(Cc1ccc2ccccc2c1)NC(=O)C1(NC(=O)c2c[nH]c3ccccc23)CCNCC1 (centres unmarked) [N-[N(1(H)indol-3-yl-carbonyl)-4-amino-piperidin-4-carbonyl]-2-(2-naphthyl)alanine-N-methyl-N-benzylamide]
–	12.6	CN(C(=O)Cc1ccccc1)C(Cc1ccc2ccccc2c1)NC(=O)C1(NC(=O)c2c[nH]c3ccccc23)CCNCC1 (centres unmarked) [xxviii, 1-N-[N(1(H)indol-3-yl-carbonyl)-4-amino-piperidin-4-carbonyl]-amino-1-[N(methyl)-N-(2-phenylacetyl)]amino-2-(2-naphtyl)ethane]
–	7.94	CN(Cc1ccccc1)C(=O)C(Cc1ccc2ccccc2c1)NC(=O)C1(NC(=O)c2ccc(Cl)c(Cl)c2)CCCCC1 (centres unmarked) [N-[N(3,4-dichloro-benzoyl)-1-amino-cyclohexancarbonyl]-2-(2-naphthyl)alanine-N-methyl-N-benzylamide]
–	20	COc1ccc(C(=O)NC2(C(=O)NC(Cc3ccc4ccccc4c3)C(=O)N(C)Cc3ccccc3)CCCCC2)cc1 (centres unmarked) [N-[N(4-methoxy-benzoyl)-1-amino-cyclohexancarbonyl]-2-(2-naphthyl)alanine-N-methyl-N-benzylamide]
–	794	COc1ccc(CC(NC(=O)C2(NC(=O)c3c[nH]c4ccccc34)CCCC2)C(=O)N(C)Cc2ccccc2)cc1 (centres unmarked) [N-[N(1(H)indol-3-yl-carbonyl)-1-amino-cyclopentancarbonyl]-4-methyoxyphenylalanine-N-methyl-N-benzylamide]
–	1	CN(Cc1ccccc1)C(=O)[C@H](Cc1ccc2ccccc2c1)NC(=O)C1(NC(=O)c2c[nH]c3ccccc23)CCCCC1 [Example, N^α [N-(1(H)indol-3-yl-carbonyl)-1-amino-cyclohexan-carbonyl]-L-2-naphthylalanine-N-methyl-N-benzylamide]
–	5.01	CN(Cc1ccccc1)C(=O)C(Cc1ccc2ccccc2c1)NC(=O)C1(NC(=O)c2ccc([N+](=O)[O-])cc2)CCCCC1 (centres unmarked) [N-[N(4-nitro-benzoyl)-1-amino-cyclohexancarbonyl]-2-(2-naphthyl)alanine-N-methyl-N-benzylamide]
–	20	CN(Cc1ccccc1)C(=O)C(Cc1ccc(O)cc1)NC(=O)C1(NC(=O)c2c[nH]c3ccccc23)CCCCC1 (centres unmarked) [N-[N(1(H)indol-3-yl-carbonyl)-1-amino-cyclohexancarbonyl]-tyrosine-N-methyl-N-benzylamide]
–	10	CN(Cc1ccccc1)C(=O)C(Cc1ccc2ccccc2c1)NC(=O)C1(NC(=O)c2ccc(Cl)cc2)CCCCC1 (centres unmarked) [N-[N(4-chloro-benzoyl)-1-amino-cyclohexancarbonyl]-2-(2-naphthyl)alanine-N-methyl-N-benzylamide]
–	178	CN(Cc1ccccc1)C(=O)C(Cc1ccccc1)NC(=O)C1(NC(=O)c2c[nH]c3ccccc23)CCCCC1 (centres unmarked) [N-[N(1(H)indol-3-yl-carbonyl)-1-amino-cyclohexancarbonyl]-phenylalanine-N-methyl-N-benzylamide]
–	2.51	CN(Cc1ccccc1)C(=O)C(Cc1ccc2ccccc2c1)NC(=O)C1(NC(=O)c2c[nH]c3ccccc23)CCCC1 (centres unmarked) [N-[N(1(H)indol-3-yl-carbonyl)-1-amino-cyclopentancarbonyl]-2-(2-naphthyl)alanine-N-methyl-N-benzylamide]
–	6.31	CN(Cc1ccccc1)C(=O)C(Cc1ccc2ccccc2c1)NC(=O)C1(NC(=O)c2c[nH]c3ccccc23)CCOCC1 (centres unmarked) [xxvii, N-[N(1(H)indol-3-yl-carbonyl)-4-amino-tetrahydropyran-4-carbonyl]-2-naphthylalanine-N-methyl-N-benzylamide]
–	3.98	COc1ccc(CC(NC(=O)C2(NC(=O)c3c[nH]c4ccccc34)CCCCC2)C(=O)N(C)Cc2ccccc2)cc1 (centres unmarked) [N-[N(1(H)indol-3-yl-carbonyl)-1-amino-cyclohexancarbonyl]-4-methoxyphenylalanine-N-methyl-N-benzylamide]
–	15.8	CN(Cc1ccccc1)C(=O)C(Cc1ccc2ccccc2c1)NC(=O)C1(NC(=O)c2ccccc2)CCCCC1 (centres unmarked) [N-[N(benzoyl)-1-amino-cyclohexancarbonyl]-2-(2-naphthyl)alanine-N-methyl-N-benzylamide]
–	20	CN(Cc1ccccc1)C(=O)C(Cc1ccc([N+](=O)[O-])cc1)NC(=O)C1(NC(=O)c2c[nH]c3ccccc23)CCCCC1 (centres unmarked) [N-[N(1(H)indol-3-yl-carbonyl)-1-amino-cyclohexancarbonyl]-4-nitrophenylalanine-N-methyl-N-benzylamide]
–	15.8	CN(Cc1ccccc1)C(=O)C(Cc1ccc2ccccc2c1)NC(=O)C1(N(C)C(=O)c2cn(C)c3ccccc23)CCCCC1 (centres unmarked) [xii, N-[N(1(methyl)indol-3-yl-carbonyl)-N-methyl-1-amino-cyclohexancarbonyl]-2 naphthylalanine-N-methyl-N-benzylamide]
–	158	CN(Cc1ccccc1)C(=O)C(Cc1ccccc1)NC(=O)C1(NC(=O)c2c[nH]c3ccccc23)CCCC1 (centres unmarked) [N-[N(1(H)indol-3-yl-carbonyl)-1-amino-cyclopentancarbonyl]-phenylalanine-N-methyl-N-benzylamide]
–	15.8	O=C(Cc1ccccc1)NC(Cc1ccc2ccccc2c1)NC(=O)C1(NC(=O)c2c[nH]c3ccccc23)CCCCC1 (centres unmarked) [ii, 1-[N(1(H)indol-3-yl-carbonyl)-1-amino-cyclohexancarbonyl]-amino-1[N-(2-phenylacetyl)amino]-2-(2-naphthyl)ethane]
–	15.8	CN(Cc1ccccc1)C(=O)C(Cc1ccc2ccccc2c1)NC(=O)C1(NC(=O)c2cn(C)c3ccccc23)CCCCC1 (centres unmarked) [N-[N(1(methyl)indol-3-yl-carbonyl)-1-amino-cyclohexancarbonyl]-2-)2-naphthyl)alanine-N-methyl-N-benzylamide]
